From PMC9238271, “The quorum sensing peptide EntF* promotes colorectal cancer metastasis in mice: a new factor in the host-microbiome interaction” (BMC Biology, 2022)
“Also recorded” adds a separate entry of the source.

Columns and labels:
[1] = test system: luciferase-transfected HCT-8/E11 cells injected into the cecal wall; test: Orthotopic mouse model of colorectal cancer: weekly bioluminescent imaging; assay type: in vivo, female athymic nude mice (Swiss nu/nu)
Procedure: All in vivo experiments were performed according to the Ethical Committee principles of laboratory animal welfare, approved by our institute (Ghent University, Faculty of Medicine and Health Sciences, approval number ECD 17-90). Mice were maintained in a sterile environment under controlled conditions (light–dark cycle with light from 7:00 h to 17:00 h, temperature 21–25 °C and humidity 45–65%). Before the experiment, mice were allowed to acclimate to the abovementioned conditions for a minimum of 7 days.
Six-week-old female athymic nude mice (Swiss nu/nu) were anesthetized, and a minimally invasive midline laparotomy was performed to localize the cecum. The cecum was then gently pulled out, and luciferase-transfected HCT-8/E11 cells (1 × 10^6 cells) in 20 μL serum-free DMEM medium with Matrigel (1:1) were injected into the cecal wall. Before implantation, cells were treated with EntF* (10^2 nM), Phr0662 (10^2 nM), vehicle (PBS), or TGFα positive control (0.1 μg mL^−1) solutions for 5 days. The cecum was then carefully placed back into the abdominal cavity and the surgical incision was closed with two layers of sutures with PDS 6-0. […] Once a week, mice were examined for tumor growth and metastases using bioluminescent imaging with the IVIS Lumina II (Perkin Elmer, Belgium) after i.p. injection with 200 μL luciferin (150 mg kg^−1). After 6 weeks, mice were euthanized using cervical dislocation, and the liver, diaphragm, lungs, cecum, duodenum, and peritoneum were macroscopically examined for the presence of tumor nodules. Liver and lung tissues were then fixed in formalin for 24 h and stored in 70% ethanol for maximum 3 days before embedding in paraffin. Next, a hematoxylin and eosin (H&E) staining was performed on 8 μm sections, and 3 sections per mouse were visualized using microscopy. Slides from tumor-bearing mice were analyzed by two blinded, independent investigators using the scoring system described in Additional file 5: Table S3. In case of differences, slides were scored by a third blinded, independent investigator for consensus.
The Kolmogorov-Smirnov test was used to assess if data obtained were normally distributed. For sample size n < 10, non-parametric tests (Mann-Whitney U test) were performed directly. Slope comparison was based on linear regression analysis. Bootstrapped medians and Hedges G-values were used to calculate the effect size when sample sizes were different between the groups.

[2] = In vitro metabolization of EntF: formation of EntF* in feces homogenate; assay type: in vitro ADME, C57BL/6 female mice; conditions: for EntF* Conc / EntF* without metabolisation, Conc / EntF*/EntF %: Feces, initial concentration EntF 31.82 µM
Procedure: Krebs-Henseleit (KH) buffer (Sigma-Aldrich, Belgium) was prepared by dissolving the powdered medium in 900 mL water while stirring. Once the powder was completely dissolved, 0.3790 g CaCl2•2H2O and 2.098 g NaHCO3 were added to the solution. NaOH or HCl was used to adjust the pH to 7.4. The solution was brought to final volume (1000 mL) with ultrapure water.
Feces homogenates were prepared, after collecting fecal material from two untreated C57BL/6 female mice after cervical dislocation, by using the same procedures employed for colon tissue homogenate preparation. Before use, the homogenate was diluted to a final protein concentration of 0.6 mg/mL.
To avoid the absorption of EntF* onto plasticware and glassware, all tubes and containers were coated with a BSA-based anti-adsorption solution before use.
Five hundred microliters of tissue homogenate were mixed with 400 μL of pre-warmed KH buffer. Then, 100 μL of KH buffer (blank) or 1 mg/mL EntF peptide solution (test) were added to the diluted homogenate and incubated at 37 °C. […] After centrifugation at 16,000g for 30 min at 5 °C, supernatants were analyzed by LC1-MS1 for EntF* quantification.
EntF* was detected and quantified on a Waters Acquity® UPLC H-class system, connected to a Waters Xevo™ TQ-S triple quadrupole mass spectrometer with electrospray ionization (operated in positive ionization mode). Autosampler tray and column oven were kept at 10 ± 5 °C and 60 ± 5 °C, respectively. Chromatographic separation was achieved on a Waters Acquity® UPLC BEH Peptide C18 column (300 Å, 1.7 μm, 2.1 mm × 100 mm). The mobile phases consisted of 93/2/5 water/acetonitrile/DMSO (V/V/V) containing 0.1% formic acid (mobile phase A) and 2/93/5 water/acetonitrile/DMSO (V/V/V) containing 0.1% formic acid (mobile phase B), and the flow rate was set to 0.5 mL/min. A 10-μL aliquot from each sample was injected. The gradient program started with 80% of mobile phase A for 1 min, followed by a linear gradient to 40% of mobile phase A for 3.5 min. Gradient was then changed to 14.2% mobile phase A at 5 min, followed by a 1 min equilibration, before starting conditions were applied. EntF* retention time was between 4.25 and 4.45 min.
An optimized capillary voltage of 3.00 kV, a cone voltage of 20.00 V, and a source offset of 50.0 V were used. Acquisition was done in the MRM mode. The selected precursor ion for EntF* was m/z 865.7 with two selected product ions at m/z 202.08 (36 eV, b2 fragment) as quantifier and m/z 315.17 (31 eV, b3 fragment) as qualifier.

[3] = Formation of EntF* from EntF in HBSS (buffer); assay type: in vitro ADME; conditions: for Formation rate, HBSS: EntF in HBSS; for EntF* Conc formed from EntF / EntF* without metabolisation, Conc / EntF*/EntF: single run
[4] = HBSS, initial concentration EntF 31.82 µM, time 0
[5] = HBSS, initial concentration EntF 31.82 µM, time 1
[6] = HBSS, initial concentration EntF 31.82 µM, time 5
[7] = HBSS, initial concentration EntF 31.82 µM, time 10
[8] = HBSS, initial concentration EntF 31.82 µM, time 30
[9] = HBSS, initial concentration EntF 31.82 µM, time 60
[10] = HBSS, initial concentration EntF 31.82 µM, time 120
[11] = HBSS, initial concentration EntF 31.82 µM, time 180

In the case of `CC(C)C[C@@H]1NC(=O)[C@H](CO)NC(=O)[C@H](Cc2ccccc2)NC(=O)[C@H](C(C)C)NC(=O)[C@@H](NC(=O)[C@H](CCC(=O)O)NC(=O)[C@@H](NC(=O)[C@H](CC(C)C)NC(=O)[C@H](CC(N)=O)NC(=O)[C@@H](N)CO)C(C)C)CSSC[C@@H](C(=O)N[C@@H](CC(N)=O)C(=O)O)NC(=O)[C@H](CCCCN)NC(=O)[C@H](CCCCN)NC(=O)[C@H](Cc2ccccc2)NC1=O` (single isomer, unassigned) [EntF*], the “effect size class by Hedges' G, bioluminescence” value ([1]; after a 6-week treatment, compared to the placebo group) is reported as “medium to large effect”, the “effect size: increase in bioluminescence compared to the placebo” value ([1]; after a 6-week treatment, bootstrapped median) is reported as 79% and the “luciferase activity / tumor growth compared to the vehicle” value ([1]; daily i.p. over 6 weeks, linear regression slope comparison) is reported as “statistically significant increase; also recorded: significant increase in tumor growth”. For the same molecule, the “EntF* Conc” value ([2]; Time 0) was 0.00 µM, the “EntF* without metabolisation, Conc” value ([2]; Time 0) was 0.0 µM and the “EntF*/EntF %” value ([2]; Time 0) was 0.0%. The “EntF* Conc” value ([2]; Time 1) was 0.50 µM, the “EntF* without metabolisation, Conc” value ([2]; Time 1) was 0.529 µM and the “EntF*/EntF %” value ([2]; Time 1) was 1.7%. For the same molecule, the “EntF* Conc” value ([2]; Time 5) was 3.00 µM, the “EntF* without metabolisation, Conc” value ([2]; Time 5) was 3.9 µM and the “EntF*/EntF %” value ([2]; Time 5) was 12.4%. For the same molecule, the “EntF* Conc” value ([2]; Time 10) was 2.69 µM, the “EntF* without metabolisation, Conc” value ([2]; Time 10) was 4.6 µM and the “EntF*/EntF %” value ([2]; Time 10) was 14.5%. For the same molecule, the “EntF* Conc” value ([2]; Time 30) was 2.33 µM, the “EntF* without metabolisation, Conc” value ([2]; Time 30) was 11.8 µM and the “EntF*/EntF %” value ([2]; Time 30) was 37.1%. The “Formation rate, Faeces, Average” value ([2]; mouse feces homogenate, Krebs-Henseleit buffer pH 7.4, 37 °C, LC1-MS1, average of X1-X4) was 1.71 %*min-1, the “Formation rate, Faeces” value ([2]; mouse feces homogenate, Krebs-Henseleit buffer pH 7.4, 37 °C, LC1-MS1, replicate X1) was 1.6635 %*min-1 and the “Formation rate, Faeces” value ([2]; mouse feces homogenate, Krebs-Henseleit buffer pH 7.4, 37 °C, LC1-MS1, replicate X2) was 2.4748 %*min-1. The “Formation rate, Faeces” value ([2]; mouse feces homogenate, Krebs-Henseleit buffer pH 7.4, 37 °C, LC1-MS1, replicate X3) was 1.4512 %*min-1, the “Formation rate, Faeces” value ([2]; mouse feces homogenate, Krebs-Henseleit buffer pH 7.4, 37 °C, LC1-MS1, replicate X4) was 1.2367 %*min-1 and the “Formation rate, HBSS” value ([3]; value X1) was 0.0321 %*min-1. For the same molecule, the “Formation rate, HBSS” value ([3]; value X2) was 0.0130 %*min-1, the “Formation rate, HBSS” value ([3]; value X3) was 0.0600 %*min-1 and the “Formation rate, HBSS” value ([3]; value X4) was 0.0499 %*min-1. The “Formation rate, HBSS” value ([3]; value X5) was 0.0573 %*min-1, the “Formation rate, HBSS” value ([3]; value X6) was 0.0440 %*min-1 and the “Formation rate, HBSS” value ([3]; value X7) was 0.0469 %*min-1. For the same molecule, the “Rico, Average” value ([3]; HBSS, initial concentration EntF 31.82 µM, average over the time points 1-180) was 0.0433 %*min-1, the “EntF* Conc formed from EntF” value [3, 4] was 0.00 µM and the “EntF* without metabolisation, Conc” value [3, 4] was 0.00 µM. The “EntF* without metabolisation, Conc” value [3, 5] was 0.01 µM, the “EntF*/EntF” value [3, 5] was 0.0321% and the “EntF* Conc formed from EntF” value [3, 6] was 0.02 µM. For the same molecule, the “EntF* without metabolisation, Conc” value [3, 6] was 0.02 µM, the “EntF*/EntF” value [3, 6] was 0.0652% and the “EntF* Conc formed from EntF” value [3, 7] was 0.19 µM. For the same molecule, the “EntF* without metabolisation, Conc” value [3, 7] was 0.19 µM, the “EntF*/EntF” value [3, 7] was 0.60% and the “EntF* Conc formed from EntF” value [3, 8] was 0.48 µM. The “EntF* without metabolisation, Conc” value [3, 8] was 0.48 µM, the “EntF*/EntF” value [3, 8] was 1.50% and the “EntF* Conc formed from EntF” value [3, 9] was 1.09 µM. The “EntF* without metabolisation, Conc” value [3, 9] was 1.09 µM, the “EntF*/EntF” value [3, 9] was 3.44% and the “EntF* Conc formed from EntF” value [3, 10] was 1.68 µM. The “EntF* without metabolisation, Conc” value [3, 10] was 1.68 µM, the “EntF*/EntF” value [3, 10] was 5.28% and the “EntF* Conc formed from EntF” value [3, 11] was 2.69 µM. The “EntF* without metabolisation, Conc” value [3, 11] was 2.69 µM, the “EntF*/EntF” value [3, 11] was 8.45% and the “stability of EntF* in HBSS” value ([3]; HBSS, remark in sheet HBSS) was “EntF* is stable in HBSS”.
